Experimental findings from PubChem BioAssay (NCI) are described below.

“And” between values parts separate entries of the source, which are not always exact repeats. Equal values may be shown once.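 Results reflect a 48-hour exposure of cells in 96-well plates to compound at five concentrations. GI50 is the concentration that inhibits growth by half. TGI: total growth inhibition.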

Common to all, as to assay: DTP human tumour cell line panel, 48 h
For assay [1], the system named is NCI-H460 lung.
In assay [2] the test system is LXFL 529 NSCLC.
In assay [3] the test system is DMS 114 small cell lung.
Assay [4] concerns KM20L2 colon.
The subject of assay [5] is RXF-631 renal.
For assay [6], the system named is XF 498 CNS.
Assay [7] deals with DMS 273 small cell lung.
For assay [8], the system named is HOP-18 NSCLC.
The test system of assay [9] is M19-MEL melanoma.
Assay [10] relates to SNB-78 CNS.
The test system of assay [11] is DLD-1 colon.

A word on the TGI: it is the concentration giving total growth inhibition. Low values mean more potent growth arrest, high ones less potent growth arrest. `O=C1NCN(c2ccccc2)C12CCN(CCCN1CCN(CCOC(c3ccc(F)cc3)c3ccc(F)cc3)CC1)CC2` showed a TGI in assay [1] of 4.32 µM.
Same read-out and setting: for `O=C1c2ccccc2NC(=S)[C@@H]2CCCN12` the value was > 100 µM.
Still for that read-out and setting: then `COc1c(O)c2c(=O)cc(OC)c3c4c(OC)cc(=O)c5c(O)c(OC)c6c(c(c1C(C(C)O)C6C(C)O)c23)c54` (stereo unspecified), with 1.18 µM; and `O=c1[nH]c(=O)n(C2CC(O)C(CO)O2)cc1OCc1ccccc1` (stereo unspecified), with > 100 µM.
The term GI50 denotes the concentration at which growth is held to half of that of the control. Take `C=C(CN(C)C)C(=O)c1ccccc1[N+](=O)[O-]`: the TGI was 30.3 µM in assay [2]; 39.1 µM in [3]; > 54.2 µM in [4]; 34.4 µM in [5]; 31.2 µM in assay [6]; 33.7 µM in assay [7]. The TGI in assay [8] was 32.7 µM; in [1], 59.3 µM and 45.1 µM; in assay [9] it was 32 µM; in assay [10], 71.4 µM; in [11], 29.5 µM. The GI50 in assay [1] is 19.6 µM.
`CCOC(=O)C1CCC(=O)N1C(=O)c1ccccc1` (stereo unspecified): in [1], the TGI was > 100 µM.
Same read-out and setting: for `COC(=O)[C@H](Cc1ccccc1)NC(=O)CCCCCCC(=O)NO` the value was 86 µM; for `CCOP(=O)(/C=C\n1ccc(N)nc1=O)OCC`, > 100 µM.
Consider `COc1ccc(NC(=S)NC(=O)c2ccc3c(c2)Sc2ccccc2O3)c([N+](=O)[O-])c1`, for which the TGI in assay [1] was > 100 µM.
On to `c1ccc(N2N=C(c3ccco3)CC2c2ccco2)cc1` (stereo unspecified), for which the TGI in assay [2], in assay [3], in [4], in assay [6], in assay [7] and in assay [1] was > 100 µM throughout. For the same compound, the TGI in assay [9] and in [10] was > 100 µM throughout.
In the case of `CCOC(=O)C#Cc1ccccc1`, the TGI in assay [1] was > 100 µM.
With `CN(C)CCC(=O)/C=C\c1ccccc1`, the TGI worked out at 26.9 µM in assay [2]; 33.7 µM in assay [3]; 86.1 µM in [4]; 60.4 µM in assay [5]; 28.4 µM in assay [6]; 33.7 µM in assay [7]. Besides, the TGI in [8] was determined as 43.5 µM; in assay [1], 37.5 µM; in assay [9], 37.4 µM; in assay [10], 37.6 µM; in [11], 31.8 µM.
For `COc1nc(C#CC(C)(C)C)nc(OC)n1`, the TGI in [1] is > 100 µM.
Same read-out and setting: then `C1=C\SS/C=C\SS/1`, with 80 µM.
Same read-out and setting: then `Nc1nn2c(=O)c3ccccc3nc2s1`, with > 100 µM.
The same measure, in the same setting: then `NS(=O)(=O)c1cccc(NC(=S)NC(=O)Nc2ccc(Cl)c(Cl)c2)c1`, with 44.6 µM.
Compound `C=Cc1ccccc1C1(O)C=CC(OC)(OC)C=C1` gave a TGI in assay [1] of 21.9 µM.
Same read-out and setting: for `CC(C)(C)c1cc(C(=O)/C=C/c2ccc3c(c2)OCO3)cc(C(C)(C)C)c1O` the value was 15.7 µM; for `O=c1cc(-c2ccccc2)oc2c(-c3cc(Cl)cc4c(=O)cc(-c5ccccc5)oc34)cc(Cl)cc12`, > 100 µM.
On the same count and under the same terms, for `S=c1cc(-c2ccc3c(c2)OCO3)s[nH]1` the value was > 100 µM; for `CC(=O)c1ccc2c(c1)CC1(C2)Cc2ccccc2C1=O` (stereo unspecified), > 100 µM.
Still for that read-out and setting: then `[O-]/[N+](=C\c1ccccc1OC(=S)S)c1ccc(Cl)cc1`, with > 100 µM.
As for `CN(C)CC1CCC(CN(C)C)C1=O` (stereo unspecified), the TGI in assay [2] is 2.96 µM; in assay [3], 11.8 µM; in assay [4], 38 µM; in assay [6] it was 10.3 µM; in [7] it was 36.7 µM; in assay [8], 33.2 µM. Further, the TGI amounted to 45.6 µM in assay [1], 7.96 µM in [9] and 17.2 µM in assay [10].
For the compound `CO[C@@H]1O[C@H](C(=O)c2ccccc2)[C@H]2OC(C)(C)O[C@@H]12`, in [1], the TGI is > 100 µM.
Same read-out and setting: then `CC(NC(=O)N(C)C)NC(=O)N(C)C`, with > 10 µM; and `CCCCCCCCCc1nn2c(Cc3ccccc3)nnc2s1`, with 39.2 µM.
Same read-out and setting: for `CCOC(=O)c1cn2c(n1)sc1cc(Cl)cc(Cl)c12` the value was > 100 µM.
For the compound `Cc1ccc(/C=C2\Cc3c(C)cc(C)cc3C2=O)c(C(=O)O)c1`, the TGI in assay [1] was > 100 µM.
Take `COC(=O)/C(C#N)=C(/NCCN)Nc1ccccc1`: the TGI in assay [1] is > 100 µM.
On to `N#Cc1nc(C2CCC2)oc1N`, for which the TGI in [1] was > 100 µM.
As for `c1c2c(cc(-n3nnc4c3CCCCCC4)c1-n1nnc3c1CCCCCC3)CCCCCC2`, the TGI turned out to be 34.8 µM in assay [5]; 9.62 µM in assay [6]; 12.3 µM in assay [7]; 18.9 µM in assay [1]; 25.5 µM in assay [9]; 39.4 µM in [10].
In assay [1], `COc1ccc(-c2cc(-c3ccccc3)[nH]c(=S)c2C#N)cc1` had a TGI of 81.7 µM.
Same read-out and setting: for `COc1ccc(COCC[C@H](C)OC2OC(CO[Si](C)(C)C(C)(C)C)C(OC(=O)CCCN=[N+]=[N-])C(OC(=O)CCCN=[N+]=[N-])C2OC(=O)CCCN=[N+]=[N-])cc1` (stereo partly specified) the value was > 100 µM.
Same read-out and setting: for `C=C1C(O)CC[C@]2(C)C1C1OC(C)(C)O[C@]13CC(=O)C(C)=C([C@H]1OC(C)(C)OC12)C3(C)C` (stereo partly specified) the value was > 100 µM; for `COc1ccc(N(C(=O)Nc2ccc(Cl)c(Cl)c2)C2c3cccn3C(=O)N2c2ccc(Cl)c(Cl)c2)cc1` (stereo unspecified), > 100 µM.
Still for that read-out and setting: for `COc1ccc(C2c3cc4c(cc3OC(N3CCOCC3)C2C)OCO4)c(OC)c1OC` (stereo unspecified) the value was 51.3 µM; for `CC(=O)OC1C(COC(=O)c2ccccc2)OC(Nc2ncc(-c3ccc(Br)cc3)s2)C(OC(=O)c2ccccc2)C1OC(=O)c1ccccc1` (stereo unspecified), > 100 µM; for `COc1cc2c(c(O)c1OC)C(=O)C(Cc1ccc(O)cc1)CO2` (stereo unspecified), > 100 µM.
For `C=C(C)C1C/C=C(/C)CCCC2(CCC3=C(CC(C(=C)C)C/C=C(/C)CCC3)O2)C(=O)C1` (stereo unspecified), the TGI in assay [2], in assay [3], in [4], in assay [6], in [7] and in [8] was > 100 µM in each case. Further, the TGI in [1], in assay [9], in [10] and in assay [11] was > 100 µM each time.
With `O=c1cc(N2CCCC2)[nH]c(=O)n1-c1ccccc1`, the TGI in assay [1] is > 100 µM.
Same read-out and setting: for `CC1(C)[C@H]2CC[C@@]13C(=O)N1C(=O)O[C@@H]([C@H]1Cl)C(Cl)(COCc1ccccc1)C(=O)OCCO[C@H]3C2` (stereo partly specified) the value was > 100 µM.
Still for that read-out and setting: then `O=[N+]([O-])c1ccc2c(c1)C1=NN(c3ccccc3)C(c3ccccc3Br)C1CCC2` (stereo unspecified), with > 50 µM.
As to `COc1cc(/C=C/C=C2\CC/C(=C\C=C\c3ccc(O)c(OC)c3)C2=O)ccc1O`, the TGI in assay [1] is > 100 µM.
Same read-out and setting: then `O=C(C(Cl)=C(N1CCOCC1)N1CCOCC1)C(Cl)Cl`, with > 100 µM; and `COc1cc2c(cc1Cc1c(F)cccc1Cl)nc(-c1c(F)cccc1Cl)n2Cc1c(F)cccc1Cl`, with > 100 µM; and `CC(C)OC(=O)OCSc1ccccc1N=Cc1cccc([N+](=O)[O-])c1`, with > 10 µM.
The same measure, in the same setting: then `CSc1n[nH]c(N)c1C(=O)Nc1ccccc1`, with > 100 µM.
As for `C=C1c2nc3ccccc3n2C=C(c2ccc(Cl)cc2)N1c1ccc(OC)cc1`, in assay [1], the TGI is 18.7 µM.
The same measure, in the same setting: for `Cc1cnc2c(c1)C(=O)C1=C(C2=O)C2OC(=O)CC2OC1(C)C` (stereo unspecified) the value was 2.28 µM; for `COCCOCCOC1=CC(=O)c2c(O)ccc(O)c2C1=O`, 3.47 µM; for `Oc1[nH]c2ccccc2c1N=NC(=S)Nc1ccc(Cl)cc1`, > 100 µM.
For `COc1cc2ccc1OCc1cccc(n1)COc1ccc(cc1OC)C=Nc1ccc(cc1)N=C2`, the TGI in assay [1] was > 100 µM.
Still for that read-out and setting: then `COc1ccc(CC2COc3cc(O)cc(O)c3C2=O)cc1O` (stereo unspecified), with > 100 µM; and `NC(=O)N/N=C1\CC2C3CC4C2C4C13` (stereo unspecified), with > 100 µM; and `O=C(Nc1noc(-c2ccccc2)n1)c1ccccc1CNc1noc(-c2ccccc2)n1`, with > 100 µM.
In the case of `C#CCN(Cc1ccc2nc(OC)c(OC)nc2c1)c1cc(OC)c(OC)c(OC)c1`, the TGI in assay [1] was > 87.2 µM.
Still for that read-out and setting: then `CCCCn1c(-c2ccc([N+](=O)[O-])cc2)cs/c1=N/N=C1\C(=O)Nc2ccc(Br)cc21`, with 38.3 µM.
On to `CCOC(=O)C(NC(=O)c1nc[nH]c1[N+](=O)[O-])C(C)C` (stereo unspecified), for which the TGI in assay [2] was > 100 µM; in assay [3], > 100 µM; in assay [6] it was 93.2 µM; in assay [7], > 100 µM; in [1], > 100 µM; in [9], > 100 µM. Moreover, the TGI in [11] is > 100 µM.
Take `CC(=O)O[C@H]1CCc2c(cc(N)c3c2C(=O)C[C@]2(C)C([C@H](C)CCCC(C)C)CCC32C)C1(C)C` (stereo partly specified): the TGI in assay [1] is > 100 µM.
Still for that read-out and setting: for `O=c1[nH]nc(Cc2ccccc2)n1/N=C/c1ccncc1` the value was > 100 µM; for `CCON1CC(C(=O)OC)=C(O)C1=O`, > 100 µM; for `OCc1ccc2c(c1)CC1(Cc3ccc(/C=N/O)cc3C1)C2` (stereo unspecified), 18.9 µM.
As to `COc1ccc(CN2C3CC2CN(c2ccc(-c4cc(OCC(C)(C)O)cn5ncc(C#N)c45)cn2)C3)cn1`, in assay [1], the GI50 was 15.9 µM and the TGI is > 100 µM.
As to `O=C(c1ccncc1)C1C(=O)c2ccccc2C1C1(O)c2ccccc2CC1C(O)c1ccncc1` (stereo unspecified), the TGI in assay [1] was > 100 µM.
On the same count and under the same terms, for `N#Cc1c(-c2ccccc2)cc(-c2ccc(Cl)cc2)[nH]c1=S` the value was > 100 µM; for `O=c1cc(/C=C/c2ccccc2)[nH]c2cc3c(cc12)OCO3`, 10.6 µM; for `COC(=O)C1(Cc2ccc3c(c2)CCC3)Cc2ccccc2C1`, > 100 µM.
Consider `CC(=O)OC1CCC2C3CCc4c(C)ccc(OS(=O)(=O)c5ccccc5)c4C3CCC12C` (stereo unspecified), for which the TGI in [1] is > 100 µM.
Turning to `CC12CCCC3(CC(=O)C(C)(C)C3C(=O)C1)C2` (stereo unspecified), the concentration for total growth inhibition (TGI) in assay [1] was > 100 µM.
In the case of `CC(C(=O)O)C(C)(O)C(=O)O` (stereo unspecified), in assay [1], the TGI is > 100 µM.
On to `COC1CC(OC2CCC3(C)C(=CCC4C3C(OC(C)=O)C(OC(=O)CC(C)C)C3(C)C(C(C)=O)CCC43O)C2)OC(C)C1OC1CC(OC)C(OC2CC(OC)C(OC3OC(C)C(OC4OC(CO)C(O)C(O)C4O)C(OC)C3O)C(C)O2)C(C)O1` (stereo unspecified), for which, in [1], the TGI is > 7.5 µM.
Still for that read-out and setting: then `O=C1CSC2=NC3=C(COC/C3=C\c3ccc(Br)cc3)C(c3ccc(Br)cc3)N12` (stereo unspecified), with > 100 µM.
Same read-out and setting: for `CCOC(=O)c1nc2cc(C(F)(F)F)ccc2nc1Nc1ccc(C(=O)NC(C(=O)OCC)C(=O)OCC)cc1` the value was > 100 µM; for `Cn1c2ccccc2c(=O)c2c(O)cc3c(c21)C=CC1(CCCCC1)O3`, > 10 µM.
